pIC50: −log10 of the molar value.
system: HGC27 (Human Gastric Cancer Cell); test: HGC27 cell growth inhibition (CellTiter-Glo); type: cell-based; settings: HGC27 cells, 24 hours, CellTiter-Glo; read-out: HGC27 CTG IC50
Protocol: Biological Activity Detection of HGC27 (Human Gastric Cancer Cell) Cell Growth Inhibition
This detection method is used to evaluate the cellular level biological activity of the compounds of the present disclosure.
Harvest HGC27 cells (purchased from Chinese Academy of Sciences), resuspend in complete culture medium and adjust the cell density to 0.2×10^6 cells per ml. Add 100 μL of cell suspension to each well into a 96-well plate and incubate overnight in a 37° C., 5% CO2 incubator. Prepare the compound to be tested and add it to the cell plate so that the maximum concentration of the compound is 10 μM. Set 8 concentration points according to 3-fold dilution. At the same time, set up a 100% inhibition control well, that is, a well with no cells added and only an equal volume of complete culture medium; and a 0% inhibition control well, that is, a cell well with 0.1% DMSO added. The above cell plate was cultured at 37° C. and 5% CO2 for 24 hours. Take out the cell culture plate, add 25 μl CellTiter-Glo® Luminescent Cell Viability reagent (promega cat #G7573) to each well, incubate in the dark for 10 minutes, transfer 100 μL to a white plate, and use Molecular Devices SpectraMax i3 to detect chemiluminescence. Data processing uses the following formula to calculate the inhibition rate: compound inhibition rate=(0% inhibition of control well signal−compound treatment well signal)/(0% inhibition of control well signal−100% inhibition of control well signal)*100%. The calculated data were fitted using graphpad prism software with four parameters and the corresponding IC50 was calculated.
According to the above detection method, the biological activity of the compound of the present disclosure was evaluated at the cellular level. Wherein, CR8 is a literature compound, which was purchased from Shanghai Bide Pharmaceutical.

`O[C@@H]1CCC[C@H]1Nc1nc(NCc2ccc(-c3ccccn3)cc2)ncc1C(F)(F)F` [Compound 152] showed a pIC50 of 6.69.

same assay, conditions: Homo sapiens, HGC-27, 24 h, HGC27 cells, 24 hours, CellTiter-Glo; read-out: HGC27 CTG IC50

Going from `CC[C@H](CO)Nc1nc(NCc2ccc(-c3ccccn3)cc2)c2ncn(C(C)C)c2n1` [CR8, reference compound] to `CC[C@H](CO)Nc1nc(NCc2ccc(-c3ccccn3)cc2)ncc1C(F)(F)F` [Compound 25], the pIC50 rises from 6.37 to 6.80 (0.43 log units).

Going from `CN1CCC(Oc2nc(NCc3ccc(-c4ccccn4)cc3)ncc2C(F)(F)F)CC1` [Compound 35] to `O[C@H]1COC[C@H]1Oc1nc(NCc2ccc(-c3ccccn3)cc2)ncc1C(F)(F)F` [Compound 151], the pIC50 rises from 6.42 to 6.71 (0.29 log units).

`Cc1ccnc(-c2ccc(CNc3ncc(C(F)(F)F)c(OC4COC4)n3)cc2)c1` [Compound 40] and `COc1ccnc(-c2ccc(CNc3ncc(C(F)(F)F)c(OC4COC4)n3)cc2)c1` [Compound 114] are within 0.2 log units of each other in pIC50: 6.47 for the first, 6.60 for the second.

Going from `OCc1ccnc(-c2ccc(CNc3ncc(C(F)(F)F)c(OC4COC4)n3)cc2)c1` [Compound 43] to `CCc1ccnc(-c2ccc(CNc3ncc(C(F)(F)F)c(OC4COC4)n3)cc2)c1` [Compound 135], the pIC50 falls from 6.58 to 6.37 (0.21 log units).

`Cc1cc(CO)cc(-c2ccc(CNc3ncc(C(F)(F)F)c(OC4COC4)n3)cc2)n1` [Compound 64] and `OCc1cc(CO)nc(-c2ccc(CNc3ncc(C(F)(F)F)c(OC4COC4)n3)cc2)c1` [Compound 125] are within 0.2 log units of each other in pIC50: 6.60 for the first, 6.72 for the second.

First: Cc1cc(CO)nc(-c2ccc(CNc3ncc(C(F)(F)F)c(OC4COC4)n3)cc2)c1 [Compound 69]
Second: N#Cc1cc(CO)nc(-c2ccc(CNc3ncc(C(F)(F)F)c(OC4COC4)n3)cc2)c1 [Compound 179]
The pIC50 of the first is 0.24 log units lower: 6.73 for the first, 6.97 for the second. The second is the more potent here.

`O[C@@H]1CCC[C@H]1Nc1nc(NCc2ccc(-c3ccccn3)cc2)ncc1C(F)(F)F` [Compound 70] and `O[C@H]1CCCC[C@H]1Nc1nc(NCc2ccc(-c3ccccn3)cc2)ncc1C(F)(F)F` [Compound 156] are within 0.2 log units of each other in pIC50: 6.80 for the first, 6.77 for the second.

First: CC(C)(C)[C@H](CO)Nc1nc(NCc2ccc(-c3ccccn3)cc2)ncc1C(F)(F)F [Compound 85]
Second: C[C@@H](O)[C@@H](CO)Nc1nc(NCc2ccc(-c3ccccn3)cc2)ncc1C(F)(F)F [Compound 126]
The pIC50 of the first is 0.38 log units lower: 6.39 for the first, 6.77 for the second. The second is the more potent here.

Going from `O[C@H]1CC[C@H]1Nc1nc(NCc2ccc(-c3ccccn3)cc2)ncc1C(F)(F)F` [Compound 91] to `OC[C@H](Nc1nc(NCc2ccc(-c3ccccn3)cc2)ncc1C(F)(F)F)C1CC1` [Compound 159], the pIC50 rises from 6.31 to 7.35 (1.04 log units). The second is the more potent here.

Compared with `OCC(CO)Nc1nc(NCc2ccc(-c3ccccn3)cc2)ncc1C(F)(F)F` [Compound 104], `COC[C@H](CO)Nc1nc(NCc2ccc(-c3ccccn3)cc2)ncc1C(F)(F)F` [Compound 158] is 0.75 log units higher in pIC50: 6.56 for the first, 7.31 for the second. The second is the more potent here.

First: C[C@@H](Nc1ncc(C(F)(F)F)c(OC2COC2)n1)c1ccc(-c2ccccn2)cc1 [Compound 119]
Second: C[C@@H](Nc1ncc(C(F)(F)F)c(OC2COC2)n1)c1ccc(-c2cc(CO)cc(CO)n2)cc1 [Compound 181]
The pIC50 of the first is 0.88 log units lower: 6.32 for the first, 7.20 for the second. The second is the more potent here.

`NC(=O)[C@@H](CO)Nc1nc(NCc2ccc(-c3ccccn3)cc2)ncc1C(F)(F)F` [Compound 127] and `CC[C@@H](Nc1nc(NCc2ccc(-c3ccccn3)cc2)ncc1C(F)(F)F)C(N)=O` [Compound 134] are within 0.2 log units of each other in pIC50: 6.35 for the first, 6.43 for the second.

First: C=Cc1ccnc(-c2ccc(CNc3ncc(C(F)(F)F)c(OC4COC4)n3)cc2)c1 [Compound 129]
Second: N#Cc1ccnc(-c2ccc(CNc3ncc(C(F)(F)F)c(OC4COC4)n3)cc2)c1 [Compound 138]
The pIC50 of the first is 0.51 log units higher: 7.11 for the first, 6.60 for the second. The first is the more potent here.

`C[C@@H](O)[C@@H](C)Oc1nc(NCc2ccc(-c3ccccn3)cc2)ncc1C(F)(F)F` [Compound 131] and `C[C@H](CO)Oc1nc(NCc2ccc(-c3ccccn3)cc2)ncc1C(F)(F)F` [Compound 165] are within 0.2 log units of each other in pIC50: 7.00 for the first, 7.05 for the second.

`CS(=O)(=O)c1cccc(-c2nc(NCc3ccc(-c4ccccn4)cc3)ncc2C(F)(F)F)c1` [Compound 146] and `NS(=O)(=O)c1cncc(-c2nc(NCc3ccc(-c4ccccn4)cc3)ncc2C(F)(F)F)c1` [Compound 147] are within 0.2 log units of each other in pIC50: 6.55 for the first, 6.39 for the second.

Compared with `CC[C@H](CO)Oc1nc(NCc2ccc(-c3ccccn3)cc2)ncc1C(F)(F)F` [Compound 149], `C[C@@H](Oc1nc(NCc2ccc(-c3ccccn3)cc2)ncc1C(F)(F)F)C(C)(C)O` [Compound 167] is 0.69 log units higher in pIC50: 6.62 for the first, 7.31 for the second.

`Cc1cc(CO)cc(-c2ccc(CNc3ncc(C(F)(F)F)c(N[C@H](CO)[C@@H](C)O)n3)cc2)n1` [Compound 160] and `C[C@@H](O)[C@@H](CO)Nc1nc(NCc2ccc(-c3cc(CO)cc(CO)n3)cc2)ncc1C(F)(F)F` [Compound 170] are the same in pIC50: 7.32 for the first, 7.32 for the second.

First: CC[C@@H](Nc1nc(NCc2ccc(-c3cc(CO)cc(C)n3)cc2)ncc1C(F)(F)F)C(N)=O [Compound 161]
Second: CC[C@@H](Nc1nc(NCc2ccc(-c3cc(CO)cc(CO)n3)cc2)ncc1C(F)(F)F)C(N)=O [Compound 169]
The pIC50 of the first is 0.57 log units lower: 6.71 for the first, 7.28 for the second.

Compared with `CC[C@@H](Nc1nc(NCc2ccc(-c3cc(C)cc(CO)n3)cc2)ncc1C(F)(F)F)C(N)=O` [Compound 163], `CC[C@@H](Nc1nc(NCc2ccc(-c3cc(CO)cc(CO)n3)cn2)ncc1C(F)(F)F)C(N)=O` [Compound 176] is 0.36 log units higher in pIC50: 6.41 for the first, 6.77 for the second. The second is the more potent here.

First: O[C@H]1CNCC1Oc1nc(NCc2ccc(-c3ccccn3)cc2)ncc1C(F)(F)F (some centres unmarked) [Compound 164]
Second: C[C@@H](Oc1nc(NCc2ccc(-c3ccccn3)cc2)ncc1C(F)(F)F)C(N)=O [Compound 166]
The pIC50 of the first is 1.21 log units lower: 6.41 for the first, 7.62 for the second.

`C[C@@H](O)[C@@H](C)Oc1nc(NCc2ccc(-c3cc(CO)cc(CO)n3)cc2)ncc1C(F)(F)F` [Compound 168] and `C[C@@H](O)[C@@H](C)Oc1nc(NCc2ccc(-c3cc(CO)cc(CO)n3)cn2)ncc1C(F)(F)F` [Compound 182] are within 0.2 log units of each other in pIC50: 7.22 for the first, 7.17 for the second.

First: C[C@@H](O)[C@@H](CO)Nc1nc(NCc2ccc(-c3cccc(CO)n3)cc2)ncc1C(F)(F)F [Compound 171]
Second: CC[C@@H](Nc1nc(NCc2ccc(-c3cc(CO)cc(CO)n3)cc2)ncc1C(F)(F)F)[C@@H](C)O [Compound 198]
The pIC50 of the first is 1.24 log units higher: 7.60 for the first, 6.36 for the second.

`C[C@@H](O)[C@@H](CO)Nc1nc(NCc2ccc(-c3cc(CO)cc(CO)n3)cc2)ncc1C#N` [Compound 175] and `C[C@@H](O)[C@@H](C)Nc1nc(NCc2ccc(-c3cc(CO)cc(CO)n3)cc2)ncc1C(F)(F)F` [Compound 194] are within 0.2 log units of each other in pIC50: 6.39 for the first, 6.56 for the second.

Compared with `C[C@@H](O)[C@@H](CO)Nc1nc(NCc2ccc(-c3cc(CO)cc(CO)n3)cn2)ncc1C(F)(F)F` [Compound 177], `CC[C@@H](Nc1nc(NCc2ccc(-c3ccccn3)cc2)ncc1C(F)(F)F)[C@@H](C)O` [Compound 195] is 0.89 log units higher in pIC50: 6.71 for the first, 7.60 for the second. The second is the more potent here.

First: C[C@@H](Nc1nc(NCc2ccc(-c3ccccn3)cc2)ncc1C(F)(F)F)C(N)=O [Compound 188]
Second: CC(C)[C@@H](Nc1nc(NCc2ccc(-c3ccccn3)cc2)ncc1C(F)(F)F)C(N)=O [Compound 210]
The pIC50 of the first is 0.88 log units lower: 6.59 for the first, 7.47 for the second. The second is the more potent here.

`C[C@@H](Nc1nc(NCc2ccc(-c3ccccn3)cc2)ncc1C(F)(F)F)C(=O)N(C)C` [Compound 192] and `CNC(=O)[C@@H](C)Nc1nc(NCc2ccc(-c3ccccn3)cc2)ncc1C(F)(F)F` [Compound 193] are within 0.2 log units of each other in pIC50: 7.60 for the first, 7.41 for the second.

`CC[C@H](O)[C@@H](C)Nc1nc(NCc2ccc(-c3ccccn3)cc2)ncc1C(F)(F)F` [Compound 199] and `CC[C@H](CN)Nc1nc(NCc2ccc(-c3ccccn3)cc2)ncc1C(F)(F)F` [Compound 214] are within 0.2 log units of each other in pIC50: 6.69 for the first, 6.53 for the second.

Going from `C[C@@H](O)[C@@H](CN1CCCC1)Nc1nc(NCc2ccc(-c3ccccn3)cc2)ncc1C(F)(F)F` [Compound 202] to `NC(=O)[C@H](Nc1nc(NCc2ccc(-c3ccccn3)cc2)ncc1C(F)(F)F)C1CCC1` [Compound 211], the pIC50 rises from 6.44 to 6.96 (0.52 log units).

With `NC(=O)[C@H](Nc1nc(NCc2ccc(-c3ccccn3)cc2)ncc1C(F)(F)F)C1CC1` [Compound 206] the pIC50 was 7.19.

same assay, conditions: Homo sapiens, HGC-27, 24 h, read-out: HGC27 CTG IC50

`FC(F)(F)c1cnc(NCc2ccc(-c3cnccn3)cc2)nc1OC1COC1` [Compound 21] and `C[C@@H](O)[C@H](Nc1nc(NCc2ccc(-c3ccccn3)cc2)ncc1C(F)(F)F)C(N)=O` [Compound 207] are within 0.2 log units of each other in pIC50: 6.81 for the first, 6.99 for the second.

`C[C@H](O)[C@@H](Nc1nc(NCc2ccc(-c3ccccn3)cc2)ncc1C(F)(F)F)C(N)=O` [Compound 212] and `C[C@@H](O)[C@@H](Nc1nc(NCc2ccc(-c3ccccn3)cc2)ncc1C(F)(F)F)C(N)=O` [Compound 213] are within 0.2 log units of each other in pIC50: 6.73 for the first, 6.91 for the second.

Reference: patent publication US20240368147A1, “CYCLIN K DEGRADER” (ADLAI NORTYE BIOPHARMA CO., LTD., priority 2021, published 2024)
